Reference: publication PMC5011342, “A high throughput drug screening assay to identify compounds that promote oligodendrocyte differentiation using acutely dissociated and purified oligodendrocyte precursor cells” (BMC Research Notes, 2016)
Read-outs that look alike come from different tables or passages of the source.

Assays:
expanded OPCs = assay: cells; conditions: for viability at 0.1 µM / viability at 1 µM / viability at 10 µM: Rattus norvegicus, 72 h; for 0.1 µM (% DMSO) / 1 µM (% DMSO) / 10 µM (% DMSO): alamarBlue viability of expanded OPCs, relative to DMSO control; for 0.1 µM (% DMSO): compound at 0.1 µM; for 1 µM (% DMSO): compound at 1 µM; for 10 µM (% DMSO): compound at 10 µM
Procedure, shortened: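 Toxicity screen: compounds added at 0.1, 1 and 10 µM to PDGF-AA-expanded OPCs in 96-well plates, 3-day incubation at 37 °C, 10% CO2, then alamarBlue 1:10 for 4 h with fluorescence readout. Results set screening doses of 10/2, 2/0.4 or 0.4/0.08 µM.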

[1] = test system: acutely dissociated and purified rat OPCs; assay: Acute OL differentiation assay (MBP expression/cell, immunofluorescent image quantification); type: cell-based; conditions: sheet "All OLga data"; for activation at 2 µM / activation at 10 µM / activation at 0.08 µM / activation at 0.4 µM: Rattus norvegicus
Procedure, shortened: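 This acute differentiation assay used purified rat OPCs from postnatal day 6–7 pups, seeded into PDL/laminin-coated 96-well plates in differentiation medium lacking PDGF and FGF. Compounds were applied in quadruplicate after a 1–2 h preincubation at 37 °C, 10 % CO2, with 0.1 % DMSO negative and 40 ng/ml T3 positive controls in eight wells. After fixation on DIV4, anti-MBP immunofluorescence images yielded MBP expression/cell.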

[2] = read-out: 0.1 µM (% DMSO), alamarBlue viability of expanded OPCs, compound at 0.1 µM, sheet All Tox data
[3] = read-out: 1 µM (% DMSO), alamarBlue viability of expanded OPCs, compound at 1 µM, sheet All Tox data
[4] = read-out: 10 µM (% DMSO), alamarBlue viability of expanded OPCs, compound at 10 µM, sheet All Tox data
[5] = 2 uM test compound, relative to quetiapine, read-out: OL differentiation, 2 uM (% Quet)
[6] = 10 uM test compound, relative to quetiapine, read-out: OL differentiation, 10 uM (% Quet)
[7] = read-out: 0.1 µM (% DMSO), alamarBlue viability, NCC library compound at 0.1 µM, sheet "All Tox data"
[8] = read-out: 1 µM (% DMSO), alamarBlue viability, NCC library compound at 1 µM, sheet "All Tox data"
[9] = read-out: 10 µM (% DMSO), alamarBlue viability, NCC library compound at 10 µM, sheet "All Tox data"
[10] = 0.4 uM test compound, relative to quetiapine, read-out: OL differentiation, 0.4 uM (% Quet)
[11] = test compound at 2 uM, NCC library screen, relative to quetiapine, read-out: 2 uM (% Quet)
[12] = test compound at 10 uM, NCC library screen, relative to quetiapine, read-out: 10 uM (% Quet)

Structure (SMILES)	viability at 0.1 µM (expanded OPCs; [2])	viability at 1 µM (expanded OPCs; [3])	viability at 10 µM (expanded OPCs; [4])	activation at 2 µM [1, 11]	activation at 10 µM [1, 12]	0.1 µM (% DMSO) (expanded OPCs)	1 µM (% DMSO) (expanded OPCs)	10 µM (% DMSO) (expanded OPCs)	other results
CC(=O)NCCCCCCNC(C)=O [Hexamethylene bisacetamide]	80.5%	83.1%	87.3%	–	–	–	–	–	activation at 2 µM [1, 5]: 4.1%; activation at 10 µM [1, 6]: 12.8%
COC(=O)C[C@](O)(CCCC(C)(C)O)C(=O)O[C@@H]1C(OC)=C[C@]23CCCN2CCc2cc4c(cc2[C@H]13)OCO4 [Homoharringtonine]	–	–	–	–	–	–	–	–	viability at 0.1 µM (expanded OPCs; [7]): 10.7%; viability at 1 µM (expanded OPCs; [8]): 9.9%; viability at 10 µM (expanded OPCs; [9]): 9.6%; activation at 0.08 µM ([1]; test compound at 0.08 uM, NCC library screen, relative to quetiapine, read-out: 0.08 uM (% Quet)): -112%; activation at 0.4 µM ([1]; test compound at 0.4 uM, NCC library screen, relative to quetiapine, read-out: 0.4 uM (% Quet)): -172%
C=CCc1ccc(O)c(-c2ccc(O)c(CC=C)c2)c1 [Honokiol]	95.4%	78.2%	11.4%	–	–	–	–	–	activation at 0.4 µM [1, 10]: 9.1%
C/C=C1\[C@H]2C=C(C)C[C@]1(N)c1ccc(=O)[nH]c1C2 [Huperzine A]	–	–	–	-19.5%	-60.7%	–	–	–	viability at 0.1 µM (expanded OPCs; [7]): 94.2%; viability at 1 µM (expanded OPCs; [8]): 90%; viability at 10 µM (expanded OPCs; [9]): 93.8%
NS(=O)(=O)c1cc2c(cc1Cl)NCNS2(=O)=O [Hydrochlorothiazide]	–	–	–	–	–	96.6 % DMSO	97.1 % DMSO	90.6 % DMSO	activation at 2 µM ([1]; test compound at 2 uM, MBP expression relative to quetiapine, NCC library screen, read-out: 2 uM (% Quet)): -36%; activation at 10 µM ([1]; test compound at 10 uM, MBP expression relative to quetiapine, NCC library screen, read-out: 10 uM (% Quet)): -46%
CCCC(=O)O[C@]1(C(=O)COC(=O)CC)CC[C@H]2[C@@H]3CCC4=CC(=O)CC[C@]4(C)[C@H]3[C@@H](O)C[C@@]21C [Hydrocortisone buteprate]	–	–	–	19.4%	13.5%	112.3 % DMSO	102.8 % DMSO	90.3 % DMSO	–
NS(=O)(=O)c1cc2c(cc1C(F)(F)F)NCNS2(=O)=O [Hydroflumethiazide]	–	–	–	-24.5%	-39%	104.6 % DMSO	96.9 % DMSO	87.1 % DMSO	–
O=C(O)c1cc2ccccc2c(Cc2c(O)c(C(=O)O)cc3ccccc23)c1O.OCCOCCN1CCN(C(c2ccccc2)c2ccc(Cl)cc2)CC1 [Hydroxyzine pamoate salt]	–	–	–	–	–	223.4 % DMSO	190.1 % DMSO	134.2 % DMSO	2 uM (% Quet) ([1]; test compound at 2 uM, NCC library screen, relative to quetiapine): 106.0 % Quet; 10 uM (% Quet) ([1]; test compound at 10 uM, NCC library screen, relative to quetiapine): 16.6 % Quet
O=c1c(O[C@@H]2O[C@H](CO)[C@H](O)[C@H](O)[C@H]2O)c(-c2ccc(O)c(O)c2)oc2cc(O)cc(O)c12 [Hyperoside]	90.3%	29.8%	14.6%	–	–	–	–	–	activation at 0.08 µM ([1]; 0.08 uM test compound, relative to quetiapine, read-out: OL differentiation, 0.08 uM (% Quet)): -14.3%; activation at 0.4 µM [1, 10]: -70.9%
CC(C)Cc1ccc(C(C)C(=O)O)cc1 (stereo not shown) [Ibuprofen]	–	–	–	12%	-9.8%	91.7 % DMSO	90.2 % DMSO	89.1 % DMSO	–
COc1ccc(-c2oc3c(CC=C(C)C)c(O[C@@H]4O[C@H](CO)[C@@H](O)[C@H](O)[C@H]4O)cc(O)c3c(=O)c2O[C@@H]2O[C@@H](C)[C@H](O)[C@@H](O)[C@H]2O)cc1 [Icariin]	86.4%	88.3%	88.8%	–	–	–	–	–	activation at 2 µM [1, 5]: 6.3%; activation at 10 µM [1, 6]: 9.8%
COC1=C(OC)C(=O)C(CCCCCCCCCCO)=C(C)C1=O [Idebenone]	99.7%	80.9%	11%	–	–	–	–	–	activation at 0.4 µM [1, 10]: -11.1%
